One assay concerns the target Histone deacetylase 1 (Homo sapiens, UniProt Q13547). Nature of the assay: Inhibition of HDAC1 (unknown origin).
For a further assay, the target named is Histone deacetylase 4 (Homo sapiens, UniProt P56524). The assay is described as follows: Inhibition of HDAC4 (unknown origin).
The target in another assay is Histone deacetylase 8 (Homo sapiens, UniProt Q9BY41). Nature of the assay: Inhibition of HDAC8 (unknown origin).
Assay [1] concerns the target 5-hydroxytryptamine receptor 2A (Homo sapiens, UniProt P28223). Nature of the assay: Displacement of [3H]-LSD from human 5-HT2A expressed in human HEK cells assessed as inhibition constant by FLIPR assay. It counts as cell-based. (In general: In a radioligand displacement assay an active substance lowers the binding of a labelled ligand.)
For assay [2], the target named is 5-hydroxytryptamine receptor 6 (Homo sapiens, UniProt P50406). Nature of the assay: Binding affinity to 5-HT6R (unknown origin) assessed as inhibition constant.
Chain of 5-hydroxytryptamine receptor 6 (P50406 whole entry): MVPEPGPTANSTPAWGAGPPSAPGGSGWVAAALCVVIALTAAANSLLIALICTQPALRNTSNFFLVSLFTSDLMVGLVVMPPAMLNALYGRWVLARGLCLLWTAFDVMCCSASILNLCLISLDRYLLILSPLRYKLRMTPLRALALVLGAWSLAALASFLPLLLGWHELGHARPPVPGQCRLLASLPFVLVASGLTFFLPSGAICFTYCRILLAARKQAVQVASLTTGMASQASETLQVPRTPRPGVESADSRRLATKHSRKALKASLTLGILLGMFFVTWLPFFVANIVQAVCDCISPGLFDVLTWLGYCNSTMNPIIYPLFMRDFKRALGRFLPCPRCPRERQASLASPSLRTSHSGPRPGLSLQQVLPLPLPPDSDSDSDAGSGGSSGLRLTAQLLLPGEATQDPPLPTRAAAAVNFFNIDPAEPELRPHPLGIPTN
Assay [3] addresses T1, Amine oxidase [flavin-containing] A (Homo sapiens, UniProt P21397).
T1 sequence (P21397 whole entry): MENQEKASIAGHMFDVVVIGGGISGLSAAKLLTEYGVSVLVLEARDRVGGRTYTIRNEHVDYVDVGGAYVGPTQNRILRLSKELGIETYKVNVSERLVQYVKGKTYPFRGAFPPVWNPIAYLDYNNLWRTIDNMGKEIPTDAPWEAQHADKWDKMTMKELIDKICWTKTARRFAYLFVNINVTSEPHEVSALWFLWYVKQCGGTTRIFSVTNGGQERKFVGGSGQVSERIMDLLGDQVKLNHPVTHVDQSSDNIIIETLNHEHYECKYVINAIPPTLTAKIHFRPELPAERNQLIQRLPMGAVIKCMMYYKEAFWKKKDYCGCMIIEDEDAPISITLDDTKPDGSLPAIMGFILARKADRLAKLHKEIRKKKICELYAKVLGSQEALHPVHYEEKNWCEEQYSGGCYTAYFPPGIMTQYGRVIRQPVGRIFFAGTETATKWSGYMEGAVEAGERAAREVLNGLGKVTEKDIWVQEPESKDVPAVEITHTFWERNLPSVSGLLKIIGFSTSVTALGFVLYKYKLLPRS
The assay is described as follows: Inhibition of MAO-A (unknown origin).

The target in assay [4] is 5-hydroxytryptamine receptor 1A (Homo sapiens, UniProt P08908). Nature of the assay: Displacement of […] from human 5-HT1A expressed in human HEK cells assessed as inhibition constant by FLIPR assay. It counts as cell-based.
Chain of 5-hydroxytryptamine receptor 1A (P08908 whole entry): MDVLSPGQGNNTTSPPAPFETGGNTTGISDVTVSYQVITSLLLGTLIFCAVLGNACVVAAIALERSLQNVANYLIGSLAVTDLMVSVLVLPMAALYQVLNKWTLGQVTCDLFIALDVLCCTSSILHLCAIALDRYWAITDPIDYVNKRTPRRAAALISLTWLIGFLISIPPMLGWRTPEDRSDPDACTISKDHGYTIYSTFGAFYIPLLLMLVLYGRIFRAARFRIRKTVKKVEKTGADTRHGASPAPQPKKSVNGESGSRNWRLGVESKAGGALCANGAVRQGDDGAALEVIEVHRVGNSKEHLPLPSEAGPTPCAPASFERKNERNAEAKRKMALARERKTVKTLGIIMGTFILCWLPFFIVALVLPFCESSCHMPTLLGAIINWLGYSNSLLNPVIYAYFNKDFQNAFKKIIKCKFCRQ
Assay [5] deals with T2, 5-hydroxytryptamine receptor 3A (Homo sapiens, UniProt P46098).
T2 sequence (P46098 whole entry): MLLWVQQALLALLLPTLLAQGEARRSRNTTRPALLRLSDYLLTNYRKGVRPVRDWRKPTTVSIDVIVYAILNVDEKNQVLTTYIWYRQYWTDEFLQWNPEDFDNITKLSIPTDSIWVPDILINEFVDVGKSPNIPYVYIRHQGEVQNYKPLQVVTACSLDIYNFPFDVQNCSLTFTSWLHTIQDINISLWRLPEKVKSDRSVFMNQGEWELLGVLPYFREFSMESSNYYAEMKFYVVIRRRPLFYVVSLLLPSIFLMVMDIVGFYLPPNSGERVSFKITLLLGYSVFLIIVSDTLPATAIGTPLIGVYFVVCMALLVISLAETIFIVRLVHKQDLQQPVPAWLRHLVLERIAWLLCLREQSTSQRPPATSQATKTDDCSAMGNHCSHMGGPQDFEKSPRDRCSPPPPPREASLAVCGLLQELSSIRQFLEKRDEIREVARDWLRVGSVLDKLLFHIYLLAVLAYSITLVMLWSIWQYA
The assay is described as follows: Binding affinity to 5-HT3R (unknown origin) assessed as inhibition constant.

Assay [6] concerns the target T3, 5-hydroxytryptamine receptor 2C (Homo sapiens, UniProt P28335).
T3 sequence (P28335 whole entry): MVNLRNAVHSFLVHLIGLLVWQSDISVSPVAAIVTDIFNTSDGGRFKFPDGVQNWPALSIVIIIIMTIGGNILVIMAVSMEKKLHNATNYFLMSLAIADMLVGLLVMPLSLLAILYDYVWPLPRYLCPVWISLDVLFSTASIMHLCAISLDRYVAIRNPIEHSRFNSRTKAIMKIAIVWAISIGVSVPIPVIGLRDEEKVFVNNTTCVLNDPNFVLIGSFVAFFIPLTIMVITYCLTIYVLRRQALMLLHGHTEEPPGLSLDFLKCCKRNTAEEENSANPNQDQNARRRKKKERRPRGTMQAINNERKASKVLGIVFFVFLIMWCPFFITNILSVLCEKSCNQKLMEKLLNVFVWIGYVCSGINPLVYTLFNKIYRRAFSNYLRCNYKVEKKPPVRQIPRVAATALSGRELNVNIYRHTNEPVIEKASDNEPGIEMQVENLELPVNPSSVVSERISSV
Nature of the assay: Displacement of [3H]-LSD from human 5-HT2C expressed in human HEK cells assessed as inhibition constant by FLIPR assay. It counts as cell-based.

Assay [7] has as its target 5-hydroxytryptamine receptor 1D (Homo sapiens, UniProt P28221). Nature of the assay: Binding affinity to 5-HT1DR (unknown origin) assessed as inhibition constant.
For assay [8], the target named is 5-hydroxytryptamine receptor 7 (Homo sapiens, UniProt P34969). Nature of the assay: Displacement of […] from human 5-HT7 expressed in human HEK cells assessed as inhibition constant by FLIPR assay. It counts as cell-based.
Assay [9] concerns the target 5-hydroxytryptamine receptor 1B (Homo sapiens, UniProt P28222). The assay is described as follows: Displacement of […] from human 5-HT1B expressed in human HEK cells assessed as inhibition constant by FLIPR assay. It is filed as cell-based.
In assay [10] the target is Dual specificity tyrosine-phosphorylation-regulated kinase 1A (Homo sapiens, UniProt Q13627). Nature of the assay: Inhibition of DYRK1A (unknown origin).
For assay [11], the target named is 5-hydroxytryptamine receptor 5A (Homo sapiens, UniProt P47898). Nature of the assay: Binding affinity to 5-HT5AR (unknown origin) assessed as inhibition constant.
Chain of 5-hydroxytryptamine receptor 5A (P47898 whole entry): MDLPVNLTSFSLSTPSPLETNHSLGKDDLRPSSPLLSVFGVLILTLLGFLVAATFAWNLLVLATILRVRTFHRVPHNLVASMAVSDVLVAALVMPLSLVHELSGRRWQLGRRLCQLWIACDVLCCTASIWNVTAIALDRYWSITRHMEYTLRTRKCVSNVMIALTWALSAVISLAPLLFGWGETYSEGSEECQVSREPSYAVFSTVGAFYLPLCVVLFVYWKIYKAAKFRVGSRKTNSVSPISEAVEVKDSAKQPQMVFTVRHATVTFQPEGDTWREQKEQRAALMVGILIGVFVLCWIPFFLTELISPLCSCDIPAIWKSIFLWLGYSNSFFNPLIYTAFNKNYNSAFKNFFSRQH
In assay [12] the target is T4, Gamma-aminobutyric acid receptor subunit alpha-5 (Homo sapiens, UniProt P31644).
T4 sequence (P31644 whole entry): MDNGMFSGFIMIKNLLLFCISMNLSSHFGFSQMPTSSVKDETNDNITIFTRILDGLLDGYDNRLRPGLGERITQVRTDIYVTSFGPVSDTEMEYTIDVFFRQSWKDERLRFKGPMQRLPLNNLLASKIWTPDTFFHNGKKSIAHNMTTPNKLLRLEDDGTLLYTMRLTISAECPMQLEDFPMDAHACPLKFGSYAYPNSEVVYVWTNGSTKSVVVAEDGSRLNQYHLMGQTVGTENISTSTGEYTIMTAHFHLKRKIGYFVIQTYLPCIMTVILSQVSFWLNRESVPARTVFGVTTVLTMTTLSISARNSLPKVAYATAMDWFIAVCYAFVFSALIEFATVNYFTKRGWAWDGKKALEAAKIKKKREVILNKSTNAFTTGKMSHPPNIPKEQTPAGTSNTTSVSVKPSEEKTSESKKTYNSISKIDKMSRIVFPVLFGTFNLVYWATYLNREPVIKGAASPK
Nature of the assay: Inhibition of human recombinant GABAA alpha5 receptor.

Assay [13] has as its target T5, Gamma-aminobutyric acid receptor subunit alpha-4 (Homo sapiens, UniProt P48169). The assay is described as follows: Binding affinity to human recombinant GABAA alpha4 receptor assessed as inhibition constant incubated for 1 hrs by liquid scintillation counting analysis.
Assay [14] has as its target T6, Gamma-aminobutyric acid receptor subunit alpha-1 (Homo sapiens, UniProt P14867).
T6 sequence (P14867 whole entry): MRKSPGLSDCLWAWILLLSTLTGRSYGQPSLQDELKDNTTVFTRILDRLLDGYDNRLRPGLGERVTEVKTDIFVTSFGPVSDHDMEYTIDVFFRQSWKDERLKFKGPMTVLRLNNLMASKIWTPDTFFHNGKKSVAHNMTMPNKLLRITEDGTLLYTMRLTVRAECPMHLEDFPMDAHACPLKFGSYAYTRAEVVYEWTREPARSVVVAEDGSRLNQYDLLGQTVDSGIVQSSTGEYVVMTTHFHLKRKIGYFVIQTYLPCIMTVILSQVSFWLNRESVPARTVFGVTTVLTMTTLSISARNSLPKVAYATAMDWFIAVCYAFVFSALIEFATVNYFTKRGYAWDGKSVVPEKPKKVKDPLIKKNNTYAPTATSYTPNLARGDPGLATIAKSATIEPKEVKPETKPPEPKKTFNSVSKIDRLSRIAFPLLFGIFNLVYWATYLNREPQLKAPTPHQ
The assay is described as follows: Inhibition of human recombinant GABAA alpha1 receptor.

Assay [15] addresses T7, Gamma-aminobutyric acid receptor subunit alpha-6 (Homo sapiens, UniProt Q16445). The assay is described as follows: Inhibition of human recombinant GABAA alpha6 receptor.
Assay [16] concerns the target T8, Gamma-aminobutyric acid receptor subunit alpha-3 (Homo sapiens, UniProt P34903).
T8 sequence (P34903 whole entry): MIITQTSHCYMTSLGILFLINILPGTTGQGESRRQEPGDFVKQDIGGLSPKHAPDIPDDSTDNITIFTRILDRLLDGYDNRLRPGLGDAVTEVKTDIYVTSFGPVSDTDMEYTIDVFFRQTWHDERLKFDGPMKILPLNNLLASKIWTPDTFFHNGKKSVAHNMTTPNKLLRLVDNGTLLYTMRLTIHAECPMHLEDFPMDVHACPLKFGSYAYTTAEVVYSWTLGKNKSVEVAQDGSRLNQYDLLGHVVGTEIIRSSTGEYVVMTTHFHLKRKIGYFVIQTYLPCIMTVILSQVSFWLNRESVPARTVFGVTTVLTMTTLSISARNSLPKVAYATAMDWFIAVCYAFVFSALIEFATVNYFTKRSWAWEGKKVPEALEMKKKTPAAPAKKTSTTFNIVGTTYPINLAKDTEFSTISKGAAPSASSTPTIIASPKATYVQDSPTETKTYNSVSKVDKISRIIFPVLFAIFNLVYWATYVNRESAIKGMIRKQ
The assay is described as follows: Binding affinity to human recombinant GABAA alpha3 receptor assessed as inhibition constant incubated for 1 hrs by liquid scintillation counting analysis.

The target of assay [17] is T9, Gamma-aminobutyric acid receptor subunit alpha-2 (Homo sapiens, UniProt P47869).
T9 sequence (P47869 whole entry): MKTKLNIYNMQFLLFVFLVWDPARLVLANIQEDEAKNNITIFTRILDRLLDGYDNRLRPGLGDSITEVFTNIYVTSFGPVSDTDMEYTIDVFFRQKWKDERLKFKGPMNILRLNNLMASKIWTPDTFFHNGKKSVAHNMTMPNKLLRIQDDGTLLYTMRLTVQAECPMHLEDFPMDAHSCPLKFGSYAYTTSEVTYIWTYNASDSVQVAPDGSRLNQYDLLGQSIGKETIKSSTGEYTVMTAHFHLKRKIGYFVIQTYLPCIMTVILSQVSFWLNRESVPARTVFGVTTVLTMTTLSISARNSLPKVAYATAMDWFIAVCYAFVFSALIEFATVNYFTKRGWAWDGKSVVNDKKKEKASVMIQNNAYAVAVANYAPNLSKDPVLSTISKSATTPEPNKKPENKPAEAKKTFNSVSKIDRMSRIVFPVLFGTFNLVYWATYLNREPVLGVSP
Nature of the assay: Inhibition of human recombinant GABAA alpha2 receptor.

Assay [18] addresses T7, Gamma-aminobutyric acid receptor subunit alpha-6. The assay is described as follows: Binding affinity to human recombinant GABAA alpha6 receptor assessed as inhibition constant incubated for 1 hrs by liquid scintillation counting analysis.
Assay [19] has as its target T4, Gamma-aminobutyric acid receptor subunit alpha-5. Nature of the assay: Binding affinity to human recombinant GABAA alpha5 receptor assessed as inhibition constant incubated for 1 hrs by liquid scintillation counting analysis.
For assay [20], the target named is T6, Gamma-aminobutyric acid receptor subunit alpha-1. The assay is described as follows: Binding affinity to human recombinant GABAA alpha1 receptor assessed as inhibition constant incubated for 1 hrs by liquid scintillation counting analysis.
In assay [21] the target is T9, Gamma-aminobutyric acid receptor subunit alpha-2. The assay is described as follows: Binding affinity to human recombinant GABAA alpha2 receptor assessed as inhibition constant incubated for 1 hrs by liquid scintillation counting analysis.
For assay [22], the target named is T5, Gamma-aminobutyric acid receptor subunit alpha-4. Nature of the assay: Inhibition of human recombinant GABAA alpha4 receptor.
For assay [23], the target named is T8, Gamma-aminobutyric acid receptor subunit alpha-3. The assay is described as follows: Inhibition of human recombinant GABAA alpha3 receptor.
Assay [24] addresses Gamma-aminobutyric acid receptor subunit alpha-2 (Rattus norvegicus, UniProt P23576). Nature of the assay: Displacement of [3H]-flumazenil from rat recombinant alpha2 GABAA receptor assessed as inhibition constant in presence of zolpidem.
The target of assay [25] is Gamma-aminobutyric acid receptor subunit alpha-1 (Rattus norvegicus, UniProt P62813). The assay is described as follows: Displacement of [3H]-flumazenil from rat recombinant alpha1 GABAA receptor assessed as inhibition constant in presence of zolpidem.

The IC50 is the concentration that gives 50% inhibition. As a reminder, the Ki is the equilibrium dissociation constant of an inhibitor or competing ligand from its target.

T5 sequence (P48169 whole entry): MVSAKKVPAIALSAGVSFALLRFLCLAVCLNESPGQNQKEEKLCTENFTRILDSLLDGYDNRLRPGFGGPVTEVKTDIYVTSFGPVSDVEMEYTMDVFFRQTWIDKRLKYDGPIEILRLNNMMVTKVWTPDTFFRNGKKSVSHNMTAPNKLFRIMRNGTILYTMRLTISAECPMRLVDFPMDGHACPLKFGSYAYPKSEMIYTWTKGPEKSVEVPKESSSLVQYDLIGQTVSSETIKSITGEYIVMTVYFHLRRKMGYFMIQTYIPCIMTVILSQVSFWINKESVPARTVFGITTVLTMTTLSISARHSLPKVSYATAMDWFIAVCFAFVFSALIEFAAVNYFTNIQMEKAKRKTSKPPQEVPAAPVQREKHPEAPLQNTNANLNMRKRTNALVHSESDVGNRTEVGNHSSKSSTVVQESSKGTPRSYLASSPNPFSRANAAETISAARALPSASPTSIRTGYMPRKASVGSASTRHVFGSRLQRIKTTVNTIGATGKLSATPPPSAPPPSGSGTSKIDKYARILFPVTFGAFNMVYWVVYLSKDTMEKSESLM
T7 sequence (Q16445 whole entry): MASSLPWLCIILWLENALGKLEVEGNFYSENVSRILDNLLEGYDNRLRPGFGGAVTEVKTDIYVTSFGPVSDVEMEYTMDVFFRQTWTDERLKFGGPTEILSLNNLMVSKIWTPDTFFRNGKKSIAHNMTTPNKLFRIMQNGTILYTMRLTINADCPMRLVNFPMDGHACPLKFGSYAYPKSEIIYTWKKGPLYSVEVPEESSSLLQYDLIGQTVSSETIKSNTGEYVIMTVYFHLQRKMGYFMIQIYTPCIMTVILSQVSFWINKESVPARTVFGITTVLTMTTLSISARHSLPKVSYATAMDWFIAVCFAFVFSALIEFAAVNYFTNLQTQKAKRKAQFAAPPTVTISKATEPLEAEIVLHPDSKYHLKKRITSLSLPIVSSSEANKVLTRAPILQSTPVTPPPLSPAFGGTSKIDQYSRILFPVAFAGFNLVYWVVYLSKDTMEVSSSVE
Chain of 5-hydroxytryptamine receptor 1B (P28222 whole entry): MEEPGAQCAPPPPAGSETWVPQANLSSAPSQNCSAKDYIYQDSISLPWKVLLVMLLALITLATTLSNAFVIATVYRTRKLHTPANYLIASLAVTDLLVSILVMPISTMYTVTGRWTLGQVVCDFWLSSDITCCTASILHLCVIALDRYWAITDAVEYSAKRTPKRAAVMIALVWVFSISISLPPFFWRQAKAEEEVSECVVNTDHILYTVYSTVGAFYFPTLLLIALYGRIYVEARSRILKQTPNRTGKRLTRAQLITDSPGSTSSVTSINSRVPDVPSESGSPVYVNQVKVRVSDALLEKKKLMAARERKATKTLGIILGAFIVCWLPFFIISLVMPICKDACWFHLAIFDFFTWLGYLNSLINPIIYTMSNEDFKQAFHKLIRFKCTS
Chain of Histone deacetylase 4 (P56524 whole entry): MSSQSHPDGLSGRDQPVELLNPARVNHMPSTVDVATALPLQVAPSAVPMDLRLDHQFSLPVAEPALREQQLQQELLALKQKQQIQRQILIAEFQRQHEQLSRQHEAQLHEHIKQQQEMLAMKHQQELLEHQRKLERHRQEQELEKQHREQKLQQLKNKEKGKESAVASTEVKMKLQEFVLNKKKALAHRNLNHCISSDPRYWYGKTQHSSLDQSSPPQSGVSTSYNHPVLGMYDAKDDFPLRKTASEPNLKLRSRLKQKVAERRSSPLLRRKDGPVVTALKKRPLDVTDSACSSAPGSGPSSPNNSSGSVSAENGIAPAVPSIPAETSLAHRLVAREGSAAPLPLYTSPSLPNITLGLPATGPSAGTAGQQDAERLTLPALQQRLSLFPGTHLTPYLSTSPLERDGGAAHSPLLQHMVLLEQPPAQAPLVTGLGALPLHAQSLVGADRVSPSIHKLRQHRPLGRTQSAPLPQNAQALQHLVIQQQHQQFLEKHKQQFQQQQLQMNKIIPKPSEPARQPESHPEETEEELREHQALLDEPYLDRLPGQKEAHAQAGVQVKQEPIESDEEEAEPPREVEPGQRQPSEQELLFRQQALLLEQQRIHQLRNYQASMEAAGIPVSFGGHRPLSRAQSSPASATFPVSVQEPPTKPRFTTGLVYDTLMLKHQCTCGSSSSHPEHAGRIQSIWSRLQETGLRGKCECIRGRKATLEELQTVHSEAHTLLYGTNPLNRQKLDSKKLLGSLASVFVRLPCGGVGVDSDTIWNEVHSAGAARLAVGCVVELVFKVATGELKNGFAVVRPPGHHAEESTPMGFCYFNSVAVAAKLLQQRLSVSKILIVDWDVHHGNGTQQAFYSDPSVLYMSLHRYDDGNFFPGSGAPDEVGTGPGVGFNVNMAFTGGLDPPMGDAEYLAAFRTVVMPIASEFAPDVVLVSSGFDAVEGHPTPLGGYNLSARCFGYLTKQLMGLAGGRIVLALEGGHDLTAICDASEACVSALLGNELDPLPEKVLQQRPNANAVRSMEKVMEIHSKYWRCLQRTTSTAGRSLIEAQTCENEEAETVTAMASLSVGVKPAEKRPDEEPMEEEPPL
Chain of 5-hydroxytryptamine receptor 1D (P28221 whole entry): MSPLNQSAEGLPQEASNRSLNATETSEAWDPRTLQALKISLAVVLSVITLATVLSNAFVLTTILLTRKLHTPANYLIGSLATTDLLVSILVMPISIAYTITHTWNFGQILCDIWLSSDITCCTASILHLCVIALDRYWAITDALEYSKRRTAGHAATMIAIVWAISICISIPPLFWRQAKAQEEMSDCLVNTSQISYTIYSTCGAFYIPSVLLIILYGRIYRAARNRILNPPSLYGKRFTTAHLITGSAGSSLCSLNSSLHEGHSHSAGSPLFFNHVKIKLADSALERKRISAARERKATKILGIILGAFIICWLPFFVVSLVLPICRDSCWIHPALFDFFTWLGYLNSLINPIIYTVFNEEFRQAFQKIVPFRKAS
Chain of Histone deacetylase 1 (Q13547 whole entry): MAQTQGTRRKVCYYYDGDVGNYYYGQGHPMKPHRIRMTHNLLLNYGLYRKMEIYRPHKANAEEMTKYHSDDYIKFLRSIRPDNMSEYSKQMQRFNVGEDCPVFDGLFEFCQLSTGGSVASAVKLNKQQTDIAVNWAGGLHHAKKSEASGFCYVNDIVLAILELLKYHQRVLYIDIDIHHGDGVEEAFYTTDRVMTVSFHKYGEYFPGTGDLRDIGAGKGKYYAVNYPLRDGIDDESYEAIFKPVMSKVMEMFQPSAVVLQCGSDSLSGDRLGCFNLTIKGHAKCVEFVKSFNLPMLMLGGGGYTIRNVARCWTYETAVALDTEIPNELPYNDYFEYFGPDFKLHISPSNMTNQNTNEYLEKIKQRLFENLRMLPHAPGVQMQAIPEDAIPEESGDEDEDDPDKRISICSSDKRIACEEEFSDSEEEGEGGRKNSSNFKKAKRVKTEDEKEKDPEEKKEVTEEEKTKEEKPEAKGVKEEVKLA
Chain of Histone deacetylase 8 (Q9BY41 whole entry): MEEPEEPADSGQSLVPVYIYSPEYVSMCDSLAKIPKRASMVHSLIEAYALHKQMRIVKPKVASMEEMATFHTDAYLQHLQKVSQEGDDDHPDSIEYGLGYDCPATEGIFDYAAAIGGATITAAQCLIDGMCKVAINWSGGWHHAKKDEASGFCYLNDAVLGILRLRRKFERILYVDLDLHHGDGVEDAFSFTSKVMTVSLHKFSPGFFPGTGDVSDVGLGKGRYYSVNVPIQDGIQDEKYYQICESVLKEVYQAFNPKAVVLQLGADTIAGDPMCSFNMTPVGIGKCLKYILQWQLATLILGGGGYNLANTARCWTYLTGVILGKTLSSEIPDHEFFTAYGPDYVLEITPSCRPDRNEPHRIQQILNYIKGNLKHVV

As to `COc1ccc(-c2nc(C(=O)NCc3ccc(C(=O)NO)cc3)cc3c2[nH]c2ccccc23)cc1`, the IC50 against Histone deacetylase 1 is 4.1 nM; on Histone deacetylase 4 it was over 1000 nM; on Histone deacetylase 8 it was over 1000 nM.
`COc1ccc2c3c([nH]c2c1)C(C)=NCC3` [HARMALINE]: the Ki in assay [1] was 5000 nM; in assay [2], 1500 nM; in assay [4], over 10000 nM; in assay [5], over 10000 nM; in assay [6] it was 9400 nM; in assay [7] it was over 10000 nM. Moreover, the Ki is 5500 nM in [8], over 10000 nM in assay [9] and over 10000 nM in [11]. Besides, the IC50 in [3] worked out at 2.5 nM; in assay [10] it was 4600 nM.
In the case of `CC(OC(=O)c1cc2c(cn1)[nH]c1ccccc12)c1ccccc1` (stereo not drawn), the IC50 is over 1000 nM in assay [12]; 34 nM in [14]; over 1000 nM in assay [15]; over 1000 nM in assay [17]; over 1000 nM in assay [22]; over 1000 nM in assay [23]. Also, the Ki is 1000 nM in [13]; 1000 nM in assay [16]; 3000 nM in [18]; 1000 nM in assay [19]; 34 nM in assay [20]; 1000 nM in [21].
With `Cn1c2ccc(F)cc2c2c(C(=O)N3CCCC3)cn(-c3ccccc3)c(=O)c21`, the Ki in [24] was found to be 12 nM; in assay [25], 7 nM.

The record behind these values is ChEMBL document CHEMBL5233266, “β-Carboline as a Privileged Scaffold for Multitarget Strategies in Alzheimer's Disease Therapy” (J Med Chem, 2021).
